Measurements taken from publication PMC11187126, “Structure and dynamics of the pyroglutamylated RF-amide peptide QRFP receptor GPR103” (Nature Communications, 2024).
Where two headings read alike, the source gives them in different places. No end group written: not given here.

Molecular target: T1, GPR103 Y214^5.38A (Homo sapiens, UniProt Q96P65, Y214A)
T1 construct: we used human full-length QRFPR-encoding plasmids; expressed in transfected cells; host or cells: HEK293 cells, pCAGGS vector
T1 sequence (Q96P65 1-431 Y214A): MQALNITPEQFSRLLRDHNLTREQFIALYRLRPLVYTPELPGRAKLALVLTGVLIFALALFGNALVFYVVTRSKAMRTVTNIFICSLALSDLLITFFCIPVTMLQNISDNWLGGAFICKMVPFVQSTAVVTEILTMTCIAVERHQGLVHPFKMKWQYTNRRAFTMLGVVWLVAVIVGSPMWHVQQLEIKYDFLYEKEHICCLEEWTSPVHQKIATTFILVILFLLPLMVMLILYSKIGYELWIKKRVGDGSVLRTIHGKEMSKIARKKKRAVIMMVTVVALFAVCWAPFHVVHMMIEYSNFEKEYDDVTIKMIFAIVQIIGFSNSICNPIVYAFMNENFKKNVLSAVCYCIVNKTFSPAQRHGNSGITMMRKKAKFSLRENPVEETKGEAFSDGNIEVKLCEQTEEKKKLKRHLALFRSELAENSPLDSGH
Assay: TGFα shedding assay; Exp. level WT (1:50)
Assay type: cell-based
Experimental: For the TGFα shedding assay and the flow cytometry analysis, we used human full-length QRFPR-encoding plasmids. Specifically, GPR103 was N-terminally modified with an HA signal sequence followed by a FLAG epitope and then a flexible linker ([…]; the FLAG epitope is underlined) and inserted into the pCAGGS vector. Plasmid encoding GPR103 mutants were generated using Quickchange Site-Directed Mutagensis kit (Agilent).
The TGFα shedding assay was performed as described previously with minor modifications. Plasmid transfection was performed in a 6-well plate with a mixture of 500 ng (per well in a 6-well plate) AP-TGFα-encoding plasmid and 200 ng GPR103-encoding plasmid. After 1-day culture, the transfected cells were harvested by trypsinization, pelleted by centrifugation at 190 × g for 5 min, and washed once with 5 mM HEPES (pH 7.4)-containing Hank’s Balanced Salt Solution (HBSS). After centrifugation, the cells were resuspended in 8 mL of the HEPES-containing HBSS. The cell suspension was seeded in a 96-well culture plate (cell plate) at a volume of 90 μL (per well hereafter) and incubated in a 37 °C incubator with 5% CO2 for 30 min. […] After spinning the cell plates at 190 × g for 2 min, 80 μL of conditioned media was transferred to an empty 96-well plate (conditioned media (CM) plate). Then, 80 μL of AP reaction solution (10 mM p-nitrophenylphosphate (p-NPP), 120 mM Tris-HCl (pH 9.5), 40 mM NaCl, and 10 mM MgCl2) was dispensed into the cell plates and the CM plates. Absorbance at 405 nm of the plates was measured using a microplate reader (SpectraMax 340 PC384, Molecular Devices) before and after 1-h incubation at room temperature. Ligand-induced AP-TGFα release was calculated by subtracting spontaneous AP-TGFα release signal from ligand-induced AP-TGFα release signal. The AP-TGFα release signals were fitted to a four-parameter sigmoidal concentration–response curve, using the Prism 10 software (GraphPad Prism). For each replicate experiment, the pEC50 parameter (negative logarithmic values of EC50 values) of the individual GPR103 mutants were normalized to that of the wild-type GPR103 performed in parallel, and resulting ∆pEC50 values were used to denote ligand response activity of the mutants. […]
Exp. le vel: WT (1:5 0)Exp. le vel: WT (1:5 0)Exp. le vel: WT (1:5 0)Exp. le vel: WT (1:2 0)Exp. le vel: WT (1:2 0)Exp. le vel: WT (1:1 0) […]
L1 4N - t e r mA F2 5N - t e r mA I 2 6N - t e r mA Y 2 9N - t e r mA C 9 82 .5 7A T10 22 .6 1A Exp . l eve l: WT (1 :5)Exp . l evel : >WT (1 :1)Exp. le vel: WT (1:2 0)Exp. le vel: WT (1:2 0)Exp. le vel: WT (1:5 0)Exp . l eve l: WT (1 :1) […]
Exp. le vel: WT (1:1 0)Exp. le vel: WT (1:2 0) C 1 1 83 .2 5AExp. le vel: WT (1:5 0)Exp. le vel: WT (1:5 0)Exp. le vel: WT (1:2 0)Exp . l eve l: WT (1 :5) […]
Exp. le vel: WT (1:5 0)Exp. le vel: WT (1:1 0)Exp. le vel: WT (1:5 0) E203ECL2AExp . l evel : >WT (1 :1)Exp. le vel: WT (1:5 0)Exp. le vel: WT (1:5 0) […]
Exp . l eve l: WT (1 :1) F28Exp. le vel: WT (1:5 0) C 2 8 56 .4 7AExp. le vel: WT (1:2 0) WExp. le vel: WT (1:2 0) F28Exp. le vel: WT (1:5 0)Exp . l evel : >WT (1 :1) […]
Exp. le vel: WT (1:5 0)Exp. le vel: WT (1:5 0) C 3 2 77 .4 8AExp . l eve l: WT (1 :5)Exp . l evel : >WT (1 :1)Exp . l evel : >WT (1 :1) […]
Suppl eme nt ary Figure 1 | Mutational analysis of GPR103. […]
mutants. Data are presented as mean values ± SEM, normally n=3-5; dots), each performed in triplicate. b-d Cell-surface expression (b) and QRFP26-in-duced activation of GPR103 (c, d) were analyzed by the flow cytometry and the TGFα shedding assay, respectively. From the concentration–response curves (a), Emax (c) and ΔpEC50 (d) values relative to the wild type were calculated. Colors in the mutant bars indicate an expression level matching to that of titrated wild type. Statistical analyses were performed using the ordinary one-way ANOVA followed by Dunnett tests with the expression-matched […]

TSGPLGNLAEELNGYSRKKGGFSFRF-NH2 [QRFP26]
Emax (Exp. #1): 18.32 % WT
Emax (Exp. #2): 10.80 % WT
Emax (Exp. #3): 19.27 % WT
Emax (mean, read-out: Emax): 16.1%
EC50 (n = 3): 105 nM
Emax (n = 3, read-out: Emax): 16.6 ± 2.2%
